Experimental data reported in patent publication US8476307B2, “Pharmaceutical composition based on idazoxan, salts, hydrates or polymorphs thereof” (Pierre Fabre Medicament, priority 2003, dated 2013).
Where a name gives a salt, the structure may show the parent alone. Read-outs that look alike come from different tables or passages of the source.

How the values were obtained:
α2-adrenoreceptors = experiment: α2-adrenoreceptor binding in rat cortical tissue; conditions: initially, without preincubation
Experimental: (§1) The binding values of the α2-adrenoreceptors for the two enantiomers were evaluated using rat cortical tissue. In addition, the biological activity was evaluated by the inhibition of the hypothermia induced by guanabenz in mice.

[1] = test system: hypothermia induced by guanabenz; experiment: Inhibition of the hypothermia induced by guanabenz; format: in vivo, mice; conditions: initially, without preincubation
Experimental: as §1

[2] = Pharmacokinetics of the enantiomers of idazoxan in healthy male subjects; conditions: for AUC0-∞ of R(−) idazoxan / AUC0-∞ of S(+) idazoxan / CLtot/F of S(+) idazoxan / Cmax of R(−) idazoxan / Cmax of S(+) idazoxan / Tmax of R(−) idazoxan / Tmax of S(+) idazoxan / t1/2 of R(−) idazoxan / t1/2 of S(+) idazoxan / CLtot/F of R(−) idazoxan: single administration of the racemate (20 mg) or of the enantiomer alone (10 mg)
Experimental: Young healthy male subjects were allocated at random to receive a single dose of each of the following substances on one occasion: 20 mg of idazoxan racemate (polymorph of form I); 10 mg of the R(−) enantiomer; 10 mg of the S(+) enantiomer.

[3] = Solubility in various solvents
[4] = ICH criteria

SMILES	AUC0-∞ of R(−) idazoxan [2]	AUC0-∞ of S(+) idazoxan [2]	CLtot/F of S(+) idazoxan [2]	Cmax of R(−) idazoxan [2]	Cmax of S(+) idazoxan [2]	Tmax of R(−) idazoxan [2]	Tmax of S(+) idazoxan [2]	t1/2 of R(−) idazoxan [2]	t1/2 of S(+) idazoxan [2]	CLtot/F of R(−) idazoxan [2]	other results
c1ccc2c(c1)OC[C@H](C1=NCCN1)O2 [S(+)Idazoxan]	11 ± 6 ng·h/mL	27 ± 13 ng·h/mL	397 ± 205 L/h	1.3 ± 0.7 ng/mL	7.2 ± 5.1 ng/mL	3.7 ± 0.5 h	2.1 ± 0.8 h	3.7 ± 0.4 h	7.8 ± 0.5 h	–	binding affinity relative to the R(−) form (α2-adrenoreceptors): ten times greater; effectiveness in the antagonism of the hypothermia relative to the R(−) form [1]: 15 times; apparent clearance relative to the R(−) enantiomer ([2]; human, in vivo): approximately 1.5 times; distribution relative to the R(−) enantiomer ([2]; human, in vivo): approximately 1.5 times; t1/2 for conversion of S(+) to R(−) ([2]; in vivo): 4 h
c1ccc2c(c1)OC[C@@H](C1=NCCN1)O2 [R(−) Idazoxan]	43 ± 19 ng·h/mL	14 ± 8 ng·h/mL	–	10.2 ± 3.9 ng/mL	1.6 ± 1.0 ng/mL	2.5 ± 0.5 h	4.0 ± 0 h	3.1 ± 0.6 h	4.1 ± 0.5 h	230 ± 92 L/h	–
c1ccc2c(c1)OCC(C1=NCCN1)O2 (stereo not drawn) [Idazoxan hydrochloride, 2-(2-imidazolinyl)-1,4-benzodioxane hydrochloride]	–	–	–	–	–	–	–	–	–	–	solubility in ethanol ([3]; powder): soluble to fairly soluble; solubility in methanol ([3]; powder): readily soluble; solubility in water ([3]; powder): readily soluble
Cl.c1ccc2c(c1)OCC(C1=NCCN1)O2 (stereo not drawn) [Form I]	58 ± 23 ng·h/mL	44 ± 21 ng·h/mL	245 ± 136 L/h	11.9 ± 4.6 ng/mL	8.3 ± 3.6 ng/mL	2.1 ± 0.7 h	2.1 ± 0.7 h	3.3 ± 0.4 h	3.3 ± 0.4 h	170 ± 76 L/h	photostability [4]: no decomposition; Long-term stability (25° C./60% RH, listed as 500): 24 months; Long-term stability (25° C./60% RH, listed as 501): 24 months; Long-term stability (25° C./60% RH, listed as 503): 9 months; Long-term stability (25° C./60% RH, listed as 504): 9 months; Long-term stability (25° C./60% RH, listed as OP2): 24 months; Long-term stability (30° C./70% RH, listed as 500): 24 months; Long-term stability (30° C./70% RH, listed as 501): 24 months; Long-term stability (30° C./70% RH, listed as 503): 6 months; Long-term stability (30° C./70% RH, listed as 504): 6 months; Long-term stability (30° C./70% RH, listed as OP2): 24 months; Long-term stability (40° C./75% RH, listed as 500): 6 months; Long-term stability (40° C./75% RH, listed as 501): 6 months; Long-term stability (40° C./75% RH, listed as 503): 6 months; Long-term stability (40° C./75% RH, listed as 504): 6 months; Long-term stability (40° C./75% RH, listed as OP2): 9 months; solubility in water ([3]; batches of the form I): Freely soluble; solubility in ethanol ([3]; batches of the form I, listed as 503): Soluble
